According to the supplement of paper PMC10307832:

Columns and labels:
Test in all cases: relative viability (nuclei count vs DMSO), 5 days (fraction); higher = more cells survive
[1] = test system: LXF-289
Outline: (§1)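 Cells from lung cancer lines were seeded into 1536-well plates and, one day later, dosed by pin tool. Treatments were either a single drug or a fixed dose of an anchor drug with five library-drug doses (not always all listed) in √10 steps. After 5 days, nuclei were stained in a one-step fixation (final 0.05% Triton X-100, 1% formaldehyde, 1 ug/ml Hoechst) and counted on 4× images, and relative viability is the treated-to-vehicle nuclei ratio, as the median of duplicate plates.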

[2] = test system: PC-3 [JPC-3]
Outline: as §1

[3] = test system: NCI-H2126
Outline: as §1

[4] = test system: LOU-NH91
Outline: as §1

[5] = test system: NCI-H358
Outline: as §1

[6] = test system: NCI-H1734
Outline: as §1

[7] = test system: HOP-62
Outline: as §1

[8] = test system: LC-2-ad
Outline: as §1

[9] = test system: NCI-H1975
Outline: as §1

[10] = test system: NCI-H1792
Outline: as §1

[11] = test system: NCI-H460
Outline: as §1

[12] = test system: NCI-H647
Outline: as §1

[13] = test system: SW 1573
Outline: as §1

[14] = test system: HCC-15
Outline: as §1

[15] = test system: NCI-H2347
Outline: as §1

[16] = test system: HCC-78
Outline: as §1

[17] = test system: NCI-H2228
Outline: as §1

[18] = test system: A-427
Outline: as §1

[19] = test system: NCI-H2342
Outline: as §1

[20] = test system: SK-LU-1
Outline: as §1

[21] = test system: NCI-H1755
Outline: as §1

[22] = test system: NCI-H1915
Outline: as §1

[23] = test system: RERF-LC-KJ
Outline: as §1

Q: How did the relative viability ([1]; first compound 0.04 µM) turn out when O=C(O)c1ccc(-c2c[nH]c3ncc(-c4ccccc4)cc23)cc1C1CCCC1 + N=C(N)NC(=N)NCCc1ccccc1 [Phenformin] (partner 250 µM) was run?
A: Its relative viability is 0.543.

Q: What about the relative viability ([1]; first compound 0.1265 µM) of the same compound?
A: The relative viability was 0.507.

Q: And the relative viability ([1]; first compound 0.4 µM)?
A: Its relative viability is 0.485.

Q: And the relative viability ([1]; first compound 1.265 µM)?
A: The relative viability was 0.243.

Q: And the relative viability ([2]; first compound 0.04 µM)?
A: Its relative viability is 0.475.

Q: What about the relative viability ([2]; first compound 0.1265 µM) of the same compound?
A: Its relative viability is 0.501.

Q: And the relative viability ([2]; first compound 0.4 µM)?
A: The relative viability was 0.468.

Q: What about the relative viability ([2]; first compound 1.265 µM) of the same compound?
A: The relative viability was 0.436.

Q: And the relative viability ([3]; first compound 0.04 µM)?
A: Its relative viability is 0.571.

Q: And the relative viability ([3]; first compound 0.1265 µM)?
A: Its relative viability is 0.581.

Q: What about the relative viability ([3]; first compound 0.4 µM) of the same compound?
A: Its relative viability is 0.505.

Q: What about the relative viability ([3]; first compound 1.265 µM) of the same compound?
A: Its relative viability is 0.441.

Q: And the relative viability ([4]; first compound 0.04 µM)?
A: Its relative viability is 0.73.

Q: What about the relative viability ([4]; first compound 0.1265 µM) of the same compound?
A: The relative viability was 0.885.

Q: What about the relative viability ([4]; first compound 0.4 µM) of the same compound?
A: The relative viability was 0.799.

Q: And the relative viability ([4]; first compound 1.265 µM)?
A: The relative viability was 0.751.

Q: And the relative viability ([5]; first compound 0.04 µM)?
A: The relative viability was 0.347.

Q: What about the relative viability ([5]; first compound 0.1265 µM) of the same compound?
A: Its relative viability is 0.379.

Q: And the relative viability ([5]; first compound 0.4 µM)?
A: Its relative viability is 0.292.

Q: What about the relative viability ([5]; first compound 1.265 µM) of the same compound?
A: The relative viability was 0.124.

Q: And the relative viability ([6]; first compound 0.04 µM)?
A: The relative viability was 0.419.

Q: What about the relative viability ([6]; first compound 0.1265 µM) of the same compound?
A: Its relative viability is 0.452.

Q: And the relative viability ([6]; first compound 0.4 µM)?
A: The relative viability was 0.371.

Q: And the relative viability ([6]; first compound 1.265 µM)?
A: Its relative viability is 0.358.

Q: What about the relative viability ([7]; first compound 0.04 µM) of the same compound?
A: Its relative viability is 0.699.

Q: And the relative viability ([7]; first compound 0.1265 µM)?
A: Its relative viability is 0.669.

Q: And the relative viability ([7]; first compound 0.4 µM)?
A: The relative viability was 0.611.

Q: What about the relative viability ([7]; first compound 1.265 µM) of the same compound?
A: Its relative viability is 0.595.

Q: What about the relative viability ([8]; first compound 0.04 µM) of the same compound?
A: Its relative viability is 0.584.

Q: And the relative viability ([8]; first compound 0.1265 µM)?
A: Its relative viability is 0.634.

Q: What about the relative viability ([8]; first compound 0.4 µM) of the same compound?
A: The relative viability was 0.536.

Q: And the relative viability ([8]; first compound 1.265 µM)?
A: The relative viability was 0.494.

Q: And the relative viability ([9]; first compound 0.04 µM)?
A: Its relative viability is 0.41.

Q: What about the relative viability ([9]; first compound 0.1265 µM) of the same compound?
A: The relative viability was 0.423.

Q: What about the relative viability ([9]; first compound 0.4 µM) of the same compound?
A: Its relative viability is 0.388.

Q: What about the relative viability ([9]; first compound 1.265 µM) of the same compound?
A: The relative viability was 0.298.

Q: What about the relative viability ([10]; first compound 0.1265 µM) of the same compound?
A: The relative viability was 0.475.

Q: And the relative viability ([10]; first compound 0.4 µM)?
A: Its relative viability is 0.353.

Q: And the relative viability ([10]; first compound 1.265 µM)?
A: The relative viability was 0.413.

Q: What about the relative viability ([11]; first compound 0.04 µM) of the same compound?
A: The relative viability was 0.536.

Q: And the relative viability ([11]; first compound 0.1265 µM)?
A: Its relative viability is 0.526.

Q: And the relative viability ([11]; first compound 0.4 µM)?
A: Its relative viability is 0.507.

Q: And the relative viability ([11]; first compound 1.265 µM)?
A: The relative viability was 0.46.

Q: And the relative viability ([12]; first compound 0.04 µM)?
A: Its relative viability is 0.611.

Q: What about the relative viability ([12]; first compound 0.1265 µM) of the same compound?
A: The relative viability was 0.598.

Q: And the relative viability ([12]; first compound 0.4 µM)?
A: Its relative viability is 0.478.

Q: And the relative viability ([12]; first compound 1.265 µM)?
A: Its relative viability is 0.38.

Q: And the relative viability ([13]; first compound 0.04 µM)?
A: The relative viability was 0.38.

Q: And the relative viability ([13]; first compound 0.1265 µM)?
A: Its relative viability is 0.35.

Q: What about the relative viability ([13]; first compound 0.4 µM) of the same compound?
A: The relative viability was 0.276.

Q: What about the relative viability ([13]; first compound 1.265 µM) of the same compound?
A: The relative viability was 0.299.

Q: And the relative viability ([14]; first compound 0.04 µM)?
A: The relative viability was 0.514.

Q: And the relative viability ([14]; first compound 0.1265 µM)?
A: Its relative viability is 0.617.

Q: And the relative viability ([14]; first compound 0.4 µM)?
A: Its relative viability is 0.433.

Q: What about the relative viability ([14]; first compound 1.265 µM) of the same compound?
A: The relative viability was 0.234.

Q: And the relative viability ([15]; first compound 0.04 µM)?
A: Its relative viability is 0.396.

Q: What about the relative viability ([15]; first compound 0.1265 µM) of the same compound?
A: Its relative viability is 0.475.

Q: And the relative viability ([15]; first compound 0.4 µM)?
A: The relative viability was 0.484.

Q: And the relative viability ([15]; first compound 1.265 µM)?
A: Its relative viability is 0.405.

Q: And the relative viability ([16]; first compound 0.1265 µM)?
A: Its relative viability is 0.907.

Q: What about the relative viability ([16]; first compound 0.4 µM) of the same compound?
A: The relative viability was 0.828.

Q: And the relative viability ([16]; first compound 1.265 µM)?
A: Its relative viability is 0.683.

Q: And the relative viability ([17]; first compound 0.04 µM)?
A: The relative viability was 0.37.

Q: What about the relative viability ([17]; first compound 0.1265 µM) of the same compound?
A: Its relative viability is 0.344.

Q: What about the relative viability ([17]; first compound 0.4 µM) of the same compound?
A: Its relative viability is 0.349.

Q: And the relative viability ([17]; first compound 1.265 µM)?
A: The relative viability was 0.245.

Q: And the relative viability ([18]; first compound 0.04 µM)?
A: Its relative viability is 0.317.

Q: What about the relative viability ([18]; first compound 0.1265 µM) of the same compound?
A: Its relative viability is 0.446.

Q: What about the relative viability ([18]; first compound 0.4 µM) of the same compound?
A: The relative viability was 0.304.

Q: And the relative viability ([18]; first compound 1.265 µM)?
A: The relative viability was 0.264.

Q: And the relative viability ([19]; first compound 0.04 µM)?
A: The relative viability was 0.512.

Q: And the relative viability ([19]; first compound 0.1265 µM)?
A: The relative viability was 0.693.

Q: And the relative viability ([19]; first compound 0.4 µM)?
A: The relative viability was 0.623.

Q: What about the relative viability ([19]; first compound 1.265 µM) of the same compound?
A: Its relative viability is 0.491.

Q: What about the relative viability ([20]; first compound 0.04 µM) of the same compound?
A: The relative viability was 0.537.

Q: And the relative viability ([20]; first compound 0.1265 µM)?
A: The relative viability was 0.585.

Q: What about the relative viability ([20]; first compound 0.4 µM) of the same compound?
A: The relative viability was 0.459.

Q: What about the relative viability ([20]; first compound 1.265 µM) of the same compound?
A: Its relative viability is 0.363.

Q: And the relative viability ([21]; first compound 0.04 µM)?
A: Its relative viability is 0.597.

Q: What about the relative viability ([21]; first compound 0.1265 µM) of the same compound?
A: The relative viability was 0.615.

Q: And the relative viability ([21]; first compound 0.4 µM)?
A: Its relative viability is 0.64.

Q: And the relative viability ([21]; first compound 1.265 µM)?
A: The relative viability was 0.604.

Q: What about the relative viability ([22]; first compound 0.04 µM) of the same compound?
A: The relative viability was 0.376.

Q: What about the relative viability ([22]; first compound 0.1265 µM) of the same compound?
A: The relative viability was 0.362.

Q: What about the relative viability ([22]; first compound 0.4 µM) of the same compound?
A: The relative viability was 0.34.

Q: What about the relative viability ([22]; first compound 1.265 µM) of the same compound?
A: The relative viability was 0.295.

Q: What about the relative viability ([23]; first compound 0.04 µM) of the same compound?
A: Its relative viability is 0.432.

Q: What about the relative viability ([23]; first compound 0.1265 µM) of the same compound?
A: The relative viability was 0.456.

Q: What about the relative viability ([23]; first compound 0.4 µM) of the same compound?
A: Its relative viability is 0.389.

Q: And the relative viability ([23]; first compound 1.265 µM)?
A: Its relative viability is 0.369.
